14 compounds from ChEMBL document CHEMBL1126540, “Synthesis and evaluation of 3-carboxymethyl steroids as inhibitors of human prostatic steroid 5-reductase” (Bioorg Med Chem Lett, 1993) can be followed below.

The nature of the experiment: Inhibition of Human prostatic Steroid 5-alpha-reductase. The note with it: read-out: Ki app.

For `CC(C)N(C(=O)[C@H]1CC[C@H]2[C@@H]3CCc4cc(C(F)(F)C(=O)O)ccc4[C@H]3CC[C@]12C)C(C)C`, the Ki amounted to 40 nM.
The value for `CC(C)N(C(=O)[C@H]1CC[C@H]2[C@@H]3CCc4cc(CCC(=O)O)ccc4[C@H]3CC[C@]12C)C(C)C` was 290 nM; that for `CC(C)N(C(=O)[C@H]1CC[C@H]2[C@@H]3CCc4cc(CS(=O)(=O)O)ccc4[C@H]3CC[C@]12C)C(C)C` was > 5000 nM.
The value for `CC(C)N(C(=O)[C@H]1CC[C@H]2[C@@H]3CCc4cc(CP(=O)(O)O)ccc4[C@H]3CC[C@]12C)C(C)C` was 740 nM; that for `CC(C)N(C(=O)[C@H]1CC[C@H]2[C@@H]3CCc4cc(C(=O)C(=O)O)ccc4[C@H]3CC[C@]12C)C(C)C` was 150 nM.
With `CC(C)N(C(=O)[C@H]1CC[C@H]2[C@@H]3CCc4cc(CC(=O)O)ccc4[C@H]3CC[C@]12C)C(C)C` the figure was 20 nM; with `CC(C)N(C(=O)[C@H]1CCC2C3CC=C4C=C(C(=O)O)CC[C@]4(C)C3CC[C@@]21C)C(C)C` (some centres undefined), 7 nM; with `CC(C)N(C(=O)[C@H]1CCC2C3CC[C@H]4CC(CC(=O)O)=CC[C@]4(C)C3CC[C@@]21C)C(C)C` (some centres undefined), 40 nM.
As to `CC(C)N(C(=O)[C@H]1CCC2C3CC[C@H]4C=C(CC(=O)O)CC[C@]4(C)C3CC[C@@]21C)C(C)C` (some centres undefined), the Ki was found to be 85 nM.
Regarding `CC(C)N(C(=O)[C@H]1CC[C@H]2[C@@H]3CC[C@H]4C/C(=C/C(=O)O)CC[C@]4(C)[C@H]3CC[C@]12C)C(C)C`, the Ki is > 5000 nM.
On to `CC(C)N(C(=O)[C@H]1CCC2C3CCC4=C/C(=C\C(=O)O)CC[C@]4(C)C3CC[C@@]21C)C(C)C` (some centres undefined), for which the Ki is > 5000 nM.
For the compound `CC(C)N(C(=O)[C@H]1CCC2C3CC[C@H]4C=C(C(=O)O)CC[C@]4(C)C3CC[C@@]21C)C(C)C` (some centres undefined), the Ki is 30 nM.
Consider `CC(C)N(C(=O)[C@H]1CCC2C3CC=C4C=C(CC(=O)O)CC[C@]4(C)C3CC[C@@]21C)C(C)C` (some centres undefined), for which the Ki was found to be 450 nM.
The value for `CC(C)N(C(=O)[C@H]1CCC2C3CCC4=C/C(=C/C(=O)O)CC[C@]4(C)C3CC[C@@]21C)C(C)C` (some centres undefined) was > 5000 nM.
